This passage reports EC50 results from patent US8633200B2, “Inhibitors of human immunodeficiency virus replication” (priority 2010, dated 2014).

The first assay concerns recombinant NL-Rluc virus (NL4-3 with Renilla Luciferase gene) in MT-2 cells. The experiment in a line: Inhibition of HIV replication (NL-Rluc luciferase reporter virus, MT-2 cells). The format is cell-based, human immunodeficiency virus (HIV). As to conditions: NL43, 120 h, read-out: Activity.
`COc1ccncc1-c1cccc(-c2nn3c(-c4cc(F)c5c(c4C)CCCO5)c([C@H](OC(C)(C)C)C(=O)O)c(C)nc3c2C)c1` [Example 160, (2S)-2-(tert-Butoxy)-2-(7-(8-fluoro-5-methylchroman-6-yl)-2-(3-(4-methoxypyridin-3-yl)phenyl)-3,5-dimethylpyrazolo[1,5-a]pyrimidin-6-yl)acetic acid]: the EC50 was less than 0.1 µM. Same read-out and setting: the same measure for `Cc1nc2c(C)c(-c3cccc(-c4ccc5c(cnn5C)c4)c3)nn2c(-c2cc(F)c3c(c2C)CCCO3)c1[C@H](OC(C)(C)C)C(=O)O` [Example 161, (2S)-2-(tert-Butoxy)-2-(7-(8-fluoro-5-methylchroman-6-yl)-3,5-dimethyl-2-(3-(1-methyl-1H-indazol-5-yl)phenyl)pyrazolo[1,5-a]pyrimidin-6-yl)acetic acid]: less than 0.1 µM. For the compound `Cc1nc2c(C)c(-c3cccc(-c4ccccc4F)c3)nn2c(-c2cc(F)c3c(c2C)CCCO3)c1[C@H](OC(C)(C)C)C(=O)O` [Example 162, (2S)-2-(tert-Butoxy)-2-(7-(8-fluoro-5-methylchroman-6-yl)-2-(2′-fluoro-[1,1′-biphenyl]-3-yl)-3,5-dimethylpyrazolo[1,5-a]pyrimidin-6-yl)acetic acid], the EC50 is less than 0.1 µM. `Cc1nc2c(C)c(-c3ccccc3)nn2c(-c2cc(F)c3c(c2C)CCCO3)c1[C@H](OC(C)(C)C)C(=O)O` [Example 163, (2S)-2-(tert-Butoxy)-2-(7-(8-fluoro-5-methylchroman-6-yl)-3,5-dimethyl-2-phenylpyrazolo[1,5-a]pyrimidin-6-yl)acetic acid]: the EC50 is less than 0.1 µM. On to `Cc1nc2c(C)c(-c3cccc(-c4cccc(F)c4)c3)nn2c(-c2cc(F)c3c(c2C)CCCO3)c1[C@H](OC(C)(C)C)C(=O)O` [Example 164, (2S)-2-(tert-Butoxy)-2-(7-(8-fluoro-5-methylchroman-6-yl)-2-(3′-fluoro-[1,1′-biphenyl]-3-yl)-3,5-dimethylpyrazolo[1,5-a]pyrimidin-6-yl)acetic acid], for which the EC50 is less than 0.1 µM.

In the case of `Cc1cc(-c2cccc(-c3cc4nc(C)c([C@H](OC(C)(C)C)C(=O)O)c(-c5cc(F)c6c(c5C)CCCO6)n4n3)c2)ccc1F` [Example 165, (2S)-2-(tert-Butoxy)-2-(2-(4′-fluoro-3′-methyl-[1,1′-biphenyl]-3-yl)-7-(8-fluoro-5-methylchroman-6-yl)-5-methylpyrazolo[1,5-a]pyrimidin-6-yl)acetic acid], the EC50 was less than 0.1 µM. `Cc1cc(F)ccc1-c1cccc(-c2cc3nc(C)c([C@H](OC(C)(C)C)C(=O)O)c(-c4cc(F)c5c(c4C)CCCO5)n3n2)c1` [Example 166, (2S)-2-(tert-Butoxy)-2-(2-(4′-fluoro-2′-methyl-[1,1′-biphenyl]-3-yl)-7-(8-fluoro-5-methylchroman-6-yl)-5-methylpyrazolo[1,5-a]pyrimidin-6-yl)acetic acid]: the EC50 is less than 0.1 µM. Consider `Cc1ncccc1-c1cccc(-c2cc3nc(C)c([C@H](OC(C)(C)C)C(=O)O)c(-c4cc(F)c5c(c4C)CCCO5)n3n2)c1` [Example 167, (2S)-2-(tert-Butoxy)-2-(7-(8-fluoro-5-methylchroman-6-yl)-5-methyl-2-(3-(2-methylpyridin-3-yl)phenyl)pyrazolo[1,5-a]pyrimidin-6-yl)acetic acid], for which the EC50 is less than 0.1 µM.

For the compound `COc1cc(-c2cccc(-c3cc4nc(C)c([C@H](OC(C)(C)C)C(=O)O)c(-c5cc(F)c6c(c5C)CCCO6)n4n3)c2)ccn1` [Example 168, (2S)-2-(tert-Butoxy)-2-(7-(8-fluoro-5-methylchroman-6-yl)-2-(3-(2-methoxypyridin-4-yl)phenyl)-5-methylpyrazolo[1,5-a]pyrimidin-6-yl)acetic acid], the EC50 is less than 0.1 µM. Still for that read-out and setting: the same measure for `COc1ccc(-c2cccc(-c3cc4nc(C)c([C@H](OC(C)(C)C)C(=O)O)c(-c5cc(F)c6c(c5C)CCCO6)n4n3)c2)cn1` [Example 169, (2S)-2-(tert-Butoxy)-2-(7-(8-fluoro-5-methylchroman-6-yl)-2-(3-(6-methoxypyridin-3-yl)phenyl)-5-methylpyrazolo[1,5-a]pyrimidin-6-yl)acetic acid]: less than 0.1 µM; for `Cc1cc(-c2cccc(-c3cc4nc(C)c([C@H](OC(C)(C)C)C(=O)O)c(-c5cc(F)c6c(c5C)CCCO6)n4n3)c2)ccn1` [Example 170, (2S)-2-(tert-Butoxy)-2-(7-(8-fluoro-5-methylchroman-6-yl)-5-methyl-2-(3-(2-methylpyridin-4-yl)phenyl)pyrazolo[1,5-a]pyrimidin-6-yl)acetic acid]: less than 0.1 µM. On the same count and under the same terms, the same measure for `Cc1nc2cc(-c3cccc(-c4cncc(F)c4)c3)nn2c(-c2cc(F)c3c(c2C)CCCO3)c1[C@H](OC(C)(C)C)C(=O)O` [Example 171, (2S)-2-(tert-Butoxy)-2-(7-(8-fluoro-5-methylchroman-6-yl)-2-(3-(5-fluoropyridin-3-yl)phenyl)-5-methylpyrazolo[1,5-a]pyrimidin-6-yl)acetic acid]: less than 0.1 µM. Turning to `Cc1nc2cc(-c3cccc(-c4cnc5ccccc5c4)c3)nn2c(-c2cc(F)c3c(c2C)CCCO3)c1[C@H](OC(C)(C)C)C(=O)O` [Example 172, (2S)-2-(tert-Butoxy)-2-(7-(8-fluoro-5-methylchroman-6-yl)-5-methyl-2-(3-(quinolin-3-yl)phenyl)pyrazolo[1,5-a]pyrimidin-6-yl)acetic acid], the EC50 was less than 0.1 µM. As for `Cc1nc2cc(-c3cccc(-c4ccccc4C(F)(F)F)c3)nn2c(-c2cc(F)c3c(c2C)CCCO3)c1[C@H](OC(C)(C)C)C(=O)O` [Example 173, (2S)-2-(tert-Butoxy)-2-(7-(8-fluoro-5-methylchroman-6-yl)-5-methyl-2-(2′-(trifluoromethyl)-[1,1′-biphenyl]-3-yl)pyrazolo[1,5-a]pyrimidin-6-yl)acetic acid], the EC50 is less than 0.1 µM. In the case of `Cc1nc2cc(-c3cccc(-c4cnn(-c5ccccc5)c4C)c3)nn2c(-c2cc(F)c3c(c2C)CCCO3)c1[C@H](OC(C)(C)C)C(=O)O` [Example 174, (2S)-2-(tert-Butoxy)-2-(7-(8-fluoro-5-methylchroman-6-yl)-5-methyl-2-(3-(5-methyl-1-phenyl-1H-pyrazol-4-yl)phenyl)pyrazolo[1,5-a]pyrimidin-6-yl)acetic acid], the EC50 is less than 0.1 µM. Regarding `Cc1nc2cc(-c3cccc(-c4ccnc(N5CCN(C)CC5)c4)c3)nn2c(-c2cc(F)c3c(c2C)CCCO3)c1[C@H](OC(C)(C)C)C(=O)O` [Example 175, (2S)-2-(tert-Butoxy)-2-(7-(8-fluoro-5-methylchroman-6-yl)-5-methyl-2-(3-(2-(4-methylpiperazin-1-yl)pyridin-4-yl)phenyl)pyrazolo[1,5-a]pyrimidin-6-yl)acetic acid], the EC50 is less than 0.1 µM.

Staying with this assay, now noted: NL43, 120 h, read-out: EC50 μM.
Take `COc1ccncc1-c1cccc(-c2nn3c(-c4cc(F)c5c(c4C)CCCO5)c([C@H](OC(C)(C)C)C(=O)O)c(C)nc3c2C)c1` [Example 160, (2S)-2-(tert-Butoxy)-2-(7-(8-fluoro-5-methylchroman-6-yl)-2-(3-(4-methoxypyridin-3-yl)phenyl)-3,5-dimethylpyrazolo[1,5-a]pyrimidin-6-yl)acetic acid]: the EC50 was found to be 0.01 µM. In the case of `Cc1nc2c(C)c(-c3ccccc3)nn2c(-c2cc(F)c3c(c2C)CCCO3)c1[C@H](OC(C)(C)C)C(=O)O` [Example 163, (2S)-2-(tert-Butoxy)-2-(7-(8-fluoro-5-methylchroman-6-yl)-3,5-dimethyl-2-phenylpyrazolo[1,5-a]pyrimidin-6-yl)acetic acid], the EC50 was found to be 0.2 µM.
